Experimental data published in patent publication US9759730B2, “Method and device for the determination of platelet function under flow conditions” (SIEMENS HEALTHCARE DIAGNOSTICS PRODUCTS GMBH, priority 2006, dated 2017).
Read-outs that look alike come from different tables or passages of the source.

Tests used:
[1] = system: platelet function in whole blood; experiment: Closure time under flow conditions, ADP/PGE1/calcium test cartridge in PFA-100, citrated whole blood treated in vitro; type: cell-based, human; conditions: cut-off 81 seconds, MRS 2395 100 μmol/L; for Number of samples with closure times above cut-off (n = 11): ASA 30 μmol/L, citrated whole blood of 11 healthy donors
Protocol: For the preparation of a partition member for a test cartridge according to the invention a polyether sulfone filter membrane (Supor® membrane, Pall GmbH, Dreieich, Germany) was cut into strips. 1 μL of a solution comprising 7 μg/μL ADP (adenosine-5′-diphosphate potassium salt.2H2O, Sigma-Aldrich Chemie GmbH, Steinheim, Germany) and 5 ng/μL PGE1 (prostaglandin E1, Sigma-Aldrich Chemie GmbH, Steinheim, Germany) and 367.5 μg/μL CaCl2.2H2O (equivalent to 100 μg/μL Ca^2+ ions) were pipetted punctiform onto the membrane and the membrane was dried. Next a circular opening (aperture) with a diameter of 100 μm was punched out of the middle of the region of the membrane treated with the reagents. The membrane thus prepared was used as partition member in the measurement chamber of a PFA-100® test cartridge (Dade Behring Marburg GmbH, Marburg, Germany).
(§1) Venous blood was taken from 11 healthy donors and anticoagulated with sodium citrate (3.2% buffered Na citrate).
(§2) Aliquots of the citrated whole blood sample were treated in vitro with the P2Y(12) antagonist MRS 2395 (Sigma-Aldrich Chemie GmbH, Steinheim, Germany). For this purpose an ethanolic MRS 2395 stock solution (15 mg/mL) was mixed with the whole blood samples so that an end concentration of 100 μmol/L was obtained.
Further aliquots of the citrated whole blood samples were treated in vitro with the COX-1 inhibitor acetylsalicylic acid (abbr.: ASA; Sigma-Aldrich Chemie GmbH, Steinheim, Germany). […]
To determine the closure time as a measure of platelet function the whole blood samples described under Example 2a) were investigated with the aid of the ADP/PGE1/calcium test cartridge according to the invention described in Example 1 in a PFA-100® apparatus (Platelet Function Analyzer-100, Dade Behring Marburg GmbH, Marburg, Germany). […] The time required up to the closure of the aperture by formation of a blood clot was determined as closure time. Every sample investigated was determined in duplicate and the mean value of a duplicate determination was used as the measurement value.
Venous blood was taken from healthy donors and anticoagulated with sodium citrate (3.2% buffered Na citrate). […] Samples from 186 donors were determined in duplicate with a Col/Epi PFA-100® test cartridge [see Example 2c)]. Samples from 159 donors were determined in duplicate with an ADP/PGE1/calcium test cartridge according to the invention [see Examples 1 and 2c)].
The reference ranges (normal range) for the Col/Epi closure time and the ADP/PGE1 closure time were established in that the measurement value ranges in which 90% of the measurement values found for the healthy subjects lay were determined (90% central interval of the normal distribution of all measurements). […]

[2] = system: platelet function in whole blood; experiment: Closure time under flow conditions, ADP/PGE1 test cartridge without calcium in PFA-100, PPACK whole blood treated in vitro; type: cell-based, human; conditions: cut-off 90 seconds, MRS 2395 150 μmol/L, ASA 30 μmol/L, MRS 2179 75 μmol/L; for Number of samples with closure times above cut-off (n = 10): ADP/PGE1 cartridge without calcium, PPACK whole blood of 10 healthy donors; for closure time relative to cut-off (FIG. 3, mean values): ADP/PGE1 cartridge, PPACK blood, 10 donors
Protocol: Venous blood was taken from 10 healthy donors and anticoagulated with 75 μM PPACK.
(§3) Aliquots of the whole blood samples were treated in vitro with the P2Y(12) antagonist MRS 2395 (Sigma-Aldrich Chemie GmbH, Steinheim, Germany). For this purpose an ethanolic MRS 2395 stock solution (15 mg/mL) was mixed with the whole blood samples so that an end concentration of 150 μmol/L was obtained.
Further aliquots of the whole blood samples were treated in vitro with the COX-1 inhibitor acetylsalicylic acid (abbr. ASA; Sigma-Aldrich Chemie GmbH, Steinheim, Germany). For this purpose an aqueous ASA stock solution (1 mg/mL) was mixed with the whole blood samples so that an end concentration of 30 μmol/L was obtained.
as §3, with “Further aliquots” for “Aliquots”, “P2Y(1)” for “P2Y(12)”, “2179” for “2395”, “aqueous” for “ethanolic”, “(1 mg/ml)” for “(15 mg/mL)”, “75” for “150”
(§4) After addition of the reagents the blood samples were incubated at room temperature for 5 minutes.
For the determination of the closure time as a measure of the platelet function the whole blood samples described under Example 4a) were investigated with the aid of a ADP/PGE1 test cartridge according to the invention in a PFA-100® apparatus (Platelet Function Analyzer-100, Dade Behring Marburg GmbH, Marburg, Germany). The ADP/PGE1 test cartridge according to the invention used was prepared essentially as described in Example 1 but without the partition member having been treated with CaCl2.2H2O. The test cartridge thus comprised 7 μg ADP and 5 ng PGE1 but no calcium ions.
700 μL of a blood sample was added to the reservoir of the temperature equilibrated test cartridge (+37° C.) and incubated at +37° C. in the apparatus for 3 minutes. Next a partial vacuum of −40 mbar was applied by the apparatus when the blood was sucked through a capillary (diameter 200 μm) from the reservoir and finally through an opening (aperture) of the partition member in the measurement chamber. The time that was required up to the closure of the aperture by formation of a blood clot was determined as closure time. Every sample investigated was determined in duplicate and the mean value of a duplicate determination was used as the measurement value.
Owing to the use of PPACK as anticoagulant the cut-off determined with citrated whole blood in the above-described examples cannot be used. Therefore, the reference range for the ADP/PGE1 closure time from the 10 samples of the healthy donors treated with PPACK was calculated by the determination of the 90% central interval of the normal distribution of the mean values of the duplicate determinations. This gave the following reference ranges for the closure times:
The upper limit of the 90% central interval was defined as cut-off, i.e. as threshold value for a platelet dysfunction.

[3] = system: platelet function in whole blood; experiment: Closure time under flow conditions, conventional Col/Epi PFA-100 test cartridge, citrated whole blood treated in vitro; type: cell-based, human; conditions: cut-off 158 seconds, MRS 2395 100 μmol/L; for Number of samples with closure times above cut-off (n = 11): ASA 30 μmol/L, citrated whole blood of 11 healthy donors
[4] = system: platelet aggregation in platelet rich plasma; experiment: ADP-induced light transmission aggregometry (according to Born), in vitro treated samples, 2 μM ADP; type: cell-based, human; conditions: MRS 2395 100 μmol/L in citrated blood, 5 min room temperature, PRP, 11 healthy donors
Protocol: as §1, §2, §4
In order to check whether the samples treated with MRS 2395 actually show a reduced platelet aggregation, platelet rich (PRP) and platelet poor (PPP) plasma was prepared from aliquots of the untreated and MRS 2395-treated whole blood samples described under Example 2a), and the samples were then treated with 2 μM ADP. The PPP samples were used as blank controls. The photometric measurement of the aggregation reaction was carried out in the automated coagulation apparatus BCT® (Dade Behring Marburg GmbH, Marburg, Germany) under continuous stirring (600 rpm). The platelet aggregation of the samples treated with MRS 2395 was reduced by a mean of 27% compared with the platelet aggregation of the untreated samples.

[5] = system: platelet function in whole blood; conditions: Method 1 ADP/PGE1/calcium cartridge; 13 patients on 75 mg clopidogrel daily
[6] = system: platelet function in whole blood; conditions: Method 2 ADP cartridge without PGE1; 13 patients on 75 mg clopidogrel daily
Source text: The samples were investigated with the aid of different methods to determine platelet function. • 1. according to the invention under flow conditions and use of an ADP/PGE1/calcium PFA-100® test cartridge (see Examples 1 and 2c), cut-off: >81 seconds; • 2. under flow conditions and use of a PFA-100® test cartridge that differed from the test cartridge according to the invention in accordance with Example 1 in that it comprised no PGE1, cut-off: >78 seconds; • 3. with ADP-induced light transmission aggregometry (according to Born) with addition of 2 μM ADP (see Example 2b), cut-off: <40% light transmission at end of test; • 4. with ADP-induced light transmission aggregometry (according to Born) with the addition of 5 μM ADP (see example 2b), cut-off: <40% light transmission at end of test. This method is recommended by Sanofi-Aventis, the manufacturer of the clopidogrel preparation Plavix®, for the determination of the antithrombotic effect of the medicament.
The cut-offs for the individual test procedures were determined by preliminary investigations with whole blood and plasma samples of normal donors.
“+” means an antithrombotic effect could be detected. “−” means no antithrombotic effect could be detected. “0” means that the duplicate determination gave contradictory results, i.e. one value above and one value below the cut-off.

platelet aggregation [7] = conditions: Method 4 aggregometry 5 μM ADP; 13 patients on 75 mg clopidogrel daily
platelet aggregation [8] = conditions: Method 3 aggregometry 2 μM ADP; 13 patients on 75 mg clopidogrel daily

Row | SMILES | Number of samples with closure times above cut-off (n = 11) [1] | Number of samples with closure times above cut-off (n = 11) ([1]; listed as acetylsalicylic acid) | Number of samples with closure times above cut-off (n = 10) [2] | Number of samples with closure times above cut-off (n = 10) ([2]; listed as acetylsalicylic acid) | closure time relative to cut-off (FIG. 3, mean values) [2] | Number of samples with closure times above cut-off (n = 11) [3] | platelet aggregation reduced compared with untreated samples (mean) [4] [%] | closure time relative to cut-off (FIG. 2, mean values) ([1]; citrated blood, 11 donors) | closure time relative to cut-off (FIG. 2, mean values) ([3]; citrated blood, 11 donors) | Sensitivity (share of 13 patients with detected antithrombotic effect) [5] [%] | number of patients in whom the antithrombotic effect could be detected (of 13) [5] | Sensitivity (share of 13 patients with detected antithrombotic effect) [6] [%] | Sensitivity (share of 13 patients with detected antithrombotic effect) (platelet aggregation [7]) [%] | Sensitivity (share of 13 patients with detected antithrombotic effect) (platelet aggregation [8]) [%]
1 | CC(=O)Oc1ccccc1C(=O)O [Acetylsalicylic acid, acetylsalicylic acid] | 1 | one | 0 | none | no prolongation of closure times | 8 |  |  |  |  |  |  |  | 
2 | CNc1ncnc2c1ncn2[C@H]1C[C@H](OP(=O)(O)O)[C@@H](COP(=O)(O)O)O1.N.N [MRS 2179, 2′-deoxy-N6-methyladenosine-3′,5′-bisphosphate, diammonium salt] |  |  | 10 |  | closure times that lie significantly above the reference value (cut-off) |  |  |  |  |  |  |  |  | 
3 | CNc1nc(Cl)nc2c1ncn2CC(COC(=O)C(C)(C)C)COC(=O)C(C)(C)C [MRS 2395, 2,2-dimethyl-propionic acid 3-(2-chloro-6-methylaminopurin-9-yl)-2-(2,2-dimethyl-propionyloxymethyl)-propyl ester] | 9 |  | 9 |  | closure times that lie significantly above the reference value (cut-off) | 4 | 27 | closure times that lie significantly above the upper reference value (cut-off) | lie to a greater extent below the upper reference value (cut-off) |  |  |  |  | 
4 | COC(=O)[C@H](c1ccccc1Cl)N1CCc2sccc2C1 [clopidogrel] |  |  |  |  |  |  |  |  |  | 77 | 10 | 46 | 62 | 69
